In ChEMBL document CHEMBL1132790, “Synthesis and biological activity of a bivalent nucleotide inhibitor of ribonucleotide reductase” (Bioorg Med Chem Lett, 2000):

How the values were obtained:
[1] = (§1) Compound was tested for ribonucleotide reductase (RR) activity by inhibition of dGTP-activated ADP reduction
[2] = as §1; remark: listed apart in the source

Row | Compound | Ki [1] [µM] | Km [2] [µM]
1 | C=CS(=O)(=O)CCCCCCS(=O)(=O)CCSc1nc2c(O)nc(N)nc2n1C1C[C@@H](O)[C@H](COP(=O)(O)OP(=O)(O)OP(=O)(O)O)O1 (stereo partly drawn) | 9 | –
2 | Nc1ncnc2c1ncn2[C@@H]1O[C@H](COP(=O)(O)OP(=O)(O)O)[C@@H](O)[C@H]1O | – | 34
3 | Nc1ncnc2c1nc(S)n2C1O[C@@H](COP(=O)(O)OP(=O)(O)O)[C@H](O)[C@@H]1O (stereo partly drawn) | 158 | –
4 | Nc1ncnc2c1nc(Br)n2[C@@H]1O[C@H](COP(=O)(O)OP(=O)(O)O)[C@@H](O)[C@H]1O | 77 | –
5 | Nc1ncnc2c1nc(SCCS(=O)(=O)CCCCCCS(=O)(=O)CCSc1nc3c(N)ncnc3n1C1O[C@H](COP(=O)(O)OP(=O)(O)O)[C@@H](O)[C@H]1O)n2C1O[C@H](COP(=O)(O)OP(=O)(O)O)[C@H](O)[C@@H]1O (stereo partly drawn) | 19 | –
6 | C=CS(=O)(=O)CCCCCCS(=O)(=O)CCSc1nc2c(N)ncnc2n1C1O[C@@H](COP(=O)(O)OP(=O)(O)O)[C@H](O)[C@@H]1O (stereo partly drawn) | 22 | –

Next, values leading:

Row | Ki [1] [µM] | Km [2] [µM] | Compound
7 | 56 | – | Nc1nc(O)c2nc(Br)n(C3CC(O)C(COP(=O)(O)OP(=O)(O)OP(=O)(O)O)O3)c2n1 (stereo not drawn)
8 | 13 | – | Nc1nc(O)c2nc(S)n(C3CC(O)C(COP(=O)(O)OP(=O)(O)OP(=O)(O)O)O3)c2n1 (stereo not drawn)
